# The source made the active and inactive calls. The calls are words filed in the database; no cut-off is given here.
# Experiments:
# [1] = target: Rhodesain (Trypanosoma brucei rhodesiense) (UniProt Q95PM0); assay: Inhibition of Trypanosoma brucei rhodesain assessed as rate constant of association using Cbz-Phe-Arg-AMC as substrate by fluorometric enzyme assays
# [2] = target: Proteasome Macropain subunit (Homo sapiens) (UniProt P49721); assay: Inhibition of trypsin-like activity of human 20S proteasome at 11 uM using boc-Leu-Arg-Arg-AMC as fluorogenic substrate by microplate reader relative to control
# [3] = target: T1, Procathepsin L (Homo sapiens, UniProt P07711); assay: Inhibition of human liver CatL assessed as fluorescence using Cbz-Phe-Arg-AMC as substrate measured at second inhibition step by fluorometric enzyme assays
# [4] = target: Rhodesain (Trypanosoma brucei rhodesiense) (UniProt Q95PM0); assay: Binding affinity to Trypanosoma brucei rhodesain assessed as protein-ligand adducts by MALDI-TOF MS analysis
# [5] = target: T2, Rhodesain (Trypanosoma brucei rhodesiense, UniProt Q95PM0); assay: Inhibition of Trypanosoma brucei rhodesain assessed as fluorescence using Cbz-Phe-Arg-AMC as substrate measured at second inhibition step by fluorometric enzyme assays
# [6] = test system: Trypanosoma brucei brucei; assay: Antiprotozoal activity against Trypanosoma brucei brucei BS449 assessed as luminescence incubated for 24 to 48 hrs by ATPlite assay; assay type: functional, organism-based
# [7] = species on record: Homo sapiens; assay: Inhibition of caspase-like activity of human 20S proteasome at 11 uM using Cbz-Leu-Leu-Glu-AMC as fluorogenic substrate by microplate reader relative to control
# [8] = target: T3, Cathepsin B (Homo sapiens, UniProt P07858); assay: Inhibition of human liver CatB assessed as fluorescence using Cbz-Phe-Arg-AMC as substrate by fluorometric enzyme assays
# [9] = target: T1, Procathepsin L; assay: Inhibition of human CatL assessed as fluorescence using Cbz-Phe-Arg-AMC as substrate measured using Dixon equation by fluorometric enzyme assays; design: species or system Liver
# [10] = species on record: Homo sapiens; assay: Inhibition of alpha-chymotrypsin-like activity of human 20S proteasome at 11 uM using Succ-Leu-Leu-Val-Tyr-AMC as fluorogenic substrate by microplate reader relative to control
# [11] = target: Rhodesain (Trypanosoma brucei rhodesiense) (UniProt Q95PM0); assay: Inhibition of Trypanosoma brucei rhodesain assessed as rate constant of dissociation of the final complex using Cbz-Phe-Arg-AMC as substrate by fluorometric enzyme assays
# [12] = test system: cathepsin L (CatL) versus rhodesain; assay: Selectivity index, ratio of Ki for human liver CatL to Trypanosoma brucei rhodesain; conditions: read-out: Selectivity Index
# [13] = test system: HeLa; assay: Cytotoxicity against human HeLa cells by Alamar blue assay; assay type: functional
# [14] = target: T2, Rhodesain; assay: Inhibition of Trypanosoma brucei rhodesain assessed as fluorescence using Cbz-Phe-Arg-AMC as substrate measured using Dixon equation by fluorometric enzyme assays
# [15] = test system: Dengue virus; assay: Inhibition of Dengue virus NS2B-NS3 protease assessed as fluorescent emission using boc-Gly-Arg-Arg-AMC at 11 uM by microplate reader relative to control
# [16] = target: T3, Cathepsin B; assay: Inhibition of human liver CatB assessed as fluorescence using Cbz-Phe-Arg-AMC as substrate at 11 uM by fluorometric enzyme assays
# [17] = target: T2, Rhodesain; assay: Competitive inhibition of Trypanosoma brucei rhodesain assessed as fluorescence using Cbz-Phe-Arg-AMC as substrate by fluorometric enzyme assays
# [18] = target: Rhodesain (Trypanosoma brucei rhodesiense) (UniProt Q95PM0); assay: Reversible inhibition of Trypanosoma brucei rhodesain assessed as reversibility using Cbz-Phe-Arg-AMC as substrate by dilution assay
# [19] = target: Rhodesain (Trypanosoma brucei rhodesiense) (UniProt Q95PM0); assay: Reversible inhibition of Trypanosoma brucei rhodesain assessed as reversibility by measuring residual enzymatic activity using Cbz-Phe-Arg-AMC as substrate after 1 hr by fluorometry based dialysis experiment relative to control
# [20] = target: Rhodesain (Trypanosoma brucei rhodesiense) (UniProt Q95PM0); assay: Reversible inhibition of Trypanosoma brucei rhodesain assessed as fluorescence using Cbz-Phe-Arg-AMC as substrate by fluorometric enzyme assays
# [21] = test system: Trypanosoma brucei brucei; assay: Antiprotozoal activity against Trypanosoma brucei brucei TC211 assessed as luminescence incubated for 24 to 48 hrs by ATPlite assay; assay type: functional, organism-based
# [22] = test system: J774.1; assay: Cytotoxicity against mouse J774.1 cells by Alamar blue assay; assay type: functional
# T1 sequence (P07711 whole entry): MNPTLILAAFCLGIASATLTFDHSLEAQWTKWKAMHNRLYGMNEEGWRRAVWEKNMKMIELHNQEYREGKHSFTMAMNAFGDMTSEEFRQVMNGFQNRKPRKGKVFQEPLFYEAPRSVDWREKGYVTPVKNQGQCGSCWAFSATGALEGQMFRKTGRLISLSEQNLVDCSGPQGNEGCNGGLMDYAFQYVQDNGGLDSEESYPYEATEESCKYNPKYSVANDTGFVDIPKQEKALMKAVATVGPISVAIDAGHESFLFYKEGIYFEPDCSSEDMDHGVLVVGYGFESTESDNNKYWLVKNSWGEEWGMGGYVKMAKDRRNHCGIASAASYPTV
# Proteasome Macropain subunit (Homo sapiens), sequence (P49721 whole entry): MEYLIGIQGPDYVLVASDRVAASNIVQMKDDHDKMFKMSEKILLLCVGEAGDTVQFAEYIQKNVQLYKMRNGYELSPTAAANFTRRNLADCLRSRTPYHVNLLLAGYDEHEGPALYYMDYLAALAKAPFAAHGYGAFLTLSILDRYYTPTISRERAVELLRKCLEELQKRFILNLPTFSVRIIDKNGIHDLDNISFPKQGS
# T2 sequence (Q95PM0 whole entry): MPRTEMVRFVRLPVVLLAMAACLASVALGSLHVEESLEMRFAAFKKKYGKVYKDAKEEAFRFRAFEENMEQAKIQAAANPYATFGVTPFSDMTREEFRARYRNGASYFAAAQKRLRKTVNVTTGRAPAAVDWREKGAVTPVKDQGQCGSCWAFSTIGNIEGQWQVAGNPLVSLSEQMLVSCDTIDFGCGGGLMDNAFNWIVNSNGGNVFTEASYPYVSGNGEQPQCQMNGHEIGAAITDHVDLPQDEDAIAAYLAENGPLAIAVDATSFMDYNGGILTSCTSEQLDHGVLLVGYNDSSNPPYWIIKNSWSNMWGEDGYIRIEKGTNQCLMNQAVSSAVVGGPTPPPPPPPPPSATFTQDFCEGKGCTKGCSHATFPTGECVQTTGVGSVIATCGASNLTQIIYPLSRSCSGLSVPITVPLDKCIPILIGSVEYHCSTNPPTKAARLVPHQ
# Rhodesain (Trypanosoma brucei rhodesiense), sequence (Q95PM0 1-450): as the sequence (Q95PM0 whole entry) above
SMILES,inhibition [2],Ki [3],Ki [5],EC50 [6],inhibition [7],Ki [8],inhibition [10],selectivity ratio [12],CC50 [13],inhibition [15],Ki [17],Activity [18],Activity [20],also measured
O=C(N[C@@H](Cc1ccccc1)C(=O)N[C@H](/C=C(\F)S(=O)(=O)Oc1ccccc1)CCc1ccccc1)c1ccncc1,inactive,258 nM,98 nM,4800 nM,22%,1700 nM,11%,4,> 100000 nM,inactive,–,–,–,K [1]: 0.055 s⁻¹; Activity [4]: Active; Ki [9]: 60 nM; K [11]: 0.01 s⁻¹; Ki [14]: 15 nM
CSCC[C@@H](/C=C(\F)S(=O)(=O)c1ccccc1)NC(=O)[C@H](Cc1ccccc1)NC(=O)c1ccncc1,–,577 nM,56 nM,–,–,1000 nM,–,10,–,–,–,–,–,–
Cc1ccc(C[C@H](NC(=O)c2ccncc2)C(=O)N[C@H](/C=C(\F)S(=O)(=O)Cc2ccccc2)CCc2ccccc2)cc1,inactive,181 nM,15 nM,–,inactive,–,inactive,12,> 100000 nM,inactive,25 nM,Active,Active,inhibition [16]: 35%; Activity [19]: 47%; EC50 [21]: 1400 nM
O=C(N[C@@H](Cc1ccccc1)C(=O)N[C@H](/C=C(\F)S(=O)(=O)c1ccccc1)CCc1ccccc1)c1ccncc1,inactive,–,–,3000 nM,41%,–,10%,–,> 100000 nM,inactive,47 nM,Active,Active,CC50 [22]: > 100000 nM
